We go through two molecules from PubChem BioAssay AID1259407 (Chemical Carcinogenesis Research Information System (CCRIS), 2018).

The structures appear in SMILES notation. Activity calls are given as the source filed them. No rule for the calls is given here.

The subject of this series is CCRIS mutagenicity, Ames/micronucleus/aberration tests. The experiment in a line: CCRIS mutagenicity studies.

As to `CC(=O)ON(C(C)=O)c1ccc(-c2ccccc2)cc1`, the mutagenic call (Test System: AMES SALMONELLA TYPHIMURIUM, Strain/Indicator: TA98(1,8-DNP6), Metabolic Activation: HUMAN, UROEPITHELIAL CELL, MICROSOMES, Method: PREINCUBATION) was “active; positive”; the mutagenic call (Test System: AMES SALMONELLA TYPHIMURIUM, Strain/Indicator: TA98(1,8-DNP6), Metabolic Activation: NONE, Method: PREINCUBATION) is “active; positive”; the mutagenic call (Test System: AMES SALMONELLA TYPHIMURIUM, Strain/Indicator: TA98, Metabolic Activation: DOG, BLADDER, MICROSOMES, Method: PREINCUBATION) is “active; positive”; the mutagenic call (Test System: AMES SALMONELLA TYPHIMURIUM, Strain/Indicator: TA98, Metabolic Activation: DOG, LIVER, MICROSOMES, Method: PREINCUBATION) was “active; positive”; the mutagenic call (Test System: AMES SALMONELLA TYPHIMURIUM, Strain/Indicator: TA98, Metabolic Activation: HUMAN, UROEPITHELIAL CELL, CYTOSOL, Method: PREINCUBATION) was “inactive; negative”; the mutagenic call (Test System: AMES SALMONELLA TYPHIMURIUM, Strain/Indicator: TA98, Metabolic Activation: HUMAN, UROEPITHELIAL CELL, MICROSOMES, Method: PREINCUBATION) is “active; positive”. The mutagenic call reads like this: (Test System: AMES SALMONELLA TYPHIMURIUM, Strain/Indicator: TA98, Metabolic Activation: HUMAN, UROEPITHELIAL CELL, S-9, Method: PREINCUBATION) “active; positive”; (Test System: AMES SALMONELLA TYPHIMURIUM, Strain/Indicator: TA98, Metabolic Activation: NONE, Method: PREINCUBATION) “active; positive”; (Test System: AMES SALMONELLA TYPHIMURIUM, Strain/Indicator: TA98, Metabolic Activation: RAT, BLADDER, MICROSOMES, Method: PREINCUBATION) “active; positive”; (Test System: AMES SALMONELLA TYPHIMURIUM, Strain/Indicator: TA98, Metabolic Activation: RAT, LIVER, MICROSOMES, Method: PREINCUBATION) “active; positive”; (Test System: AMES SALMONELLA TYPHIMURIUM, Strain/Indicator: YG1024, Metabolic Activation: HUMAN, UROEPITHELIAL CELL, MICROSOMES, Method: PREINCUBATION) “active; positive”; (Test System: UDS HUMAN FIBROBLASTS, Strain/Indicator: THY INCORP (NON-S-PHASE), Metabolic Activation: NONE, Method: AUTORADIOGRAPHY) “active; positive”.
Turning to `O=C(O)c1ccccc1[O-].O=C(O)c1ccccc1[O-].O=C(O)c1ccccc1[O-].[Cr+3]`, the mutagenic call by setting is: (Test System: AMES SALMONELLA TYPHIMURIUM, Strain/Indicator: TA92, Metabolic Activation: NONE, Method: STANDARD PLATE) “inactive; negative”; (Test System: AMES SALMONELLA TYPHIMURIUM, Strain/Indicator: TA94, Metabolic Activation: NONE, Method: STANDARD PLATE) “inactive; negative”; (Test System: AMES SALMONELLA TYPHIMURIUM, Strain/Indicator: TA98, Metabolic Activation: NONE, Method: STANDARD PLATE) “inactive; negative”; (Test System: AMES SALMONELLA TYPHIMURIUM, Strain/Indicator: TA100, Metabolic Activation: NONE, Method: STANDARD PLATE) “inactive; negative”.
